This test relates to COLO205. As to the kind of experiment: Inhibition of cancer cell growth as measured by cell number, COLO205. The class given is cell-based. The note with it: Homo sapiens, COLO 205, 48 h, read-out: IC50 COLO205.

SMILES strings stand for the structures. Values after ≈ are worked out from the molar mass of the structure shown.

The term IC50 denotes the midpoint of a concentration-inhibition curve. For the molecule `CCOc1cc2ncc(C#N)c(Nc3cccc(Br)c3)c2cc1OCC` [Example 47, 4-[(3-Bromophenyl)amino]6,7-diethoxy-3-quinolinecarbonitrile], the 50% inhibitory concentration (IC50) was found to be 0.0757 mg/L (≈ 0.184 µM).
